# Laboratory results taken from patent US10214527B2, “Triazolopyridine inhibitors of myeloperoxidase” (priority 2015, dated 2019).
# Tests used:
# Assay type in all cases: biochemical
# myeloperoxidase (MPO) [1] = target: T1, myeloperoxidase (MPO) (Homo sapiens (Human), UniProt P05164); test: MPO chlorination assay (APF assay); settings: MPO chlorination, potency range class; read-out: APF Assay IC50 value
# myeloperoxidase (MPO) [2] = target: T1, myeloperoxidase (MPO); test: MPO peroxidation assay (Amplex Red assay); settings: MPO peroxidation, potency range class; read-out: Amplex Red Assay IC50 value
# [3] = target: eosinophil peroxidase (EPX) (Homo sapiens (Human), UniProt P11678); test: EPX bromination assay
# eosinophil peroxidase (EPX), sequence (P11678 140-715): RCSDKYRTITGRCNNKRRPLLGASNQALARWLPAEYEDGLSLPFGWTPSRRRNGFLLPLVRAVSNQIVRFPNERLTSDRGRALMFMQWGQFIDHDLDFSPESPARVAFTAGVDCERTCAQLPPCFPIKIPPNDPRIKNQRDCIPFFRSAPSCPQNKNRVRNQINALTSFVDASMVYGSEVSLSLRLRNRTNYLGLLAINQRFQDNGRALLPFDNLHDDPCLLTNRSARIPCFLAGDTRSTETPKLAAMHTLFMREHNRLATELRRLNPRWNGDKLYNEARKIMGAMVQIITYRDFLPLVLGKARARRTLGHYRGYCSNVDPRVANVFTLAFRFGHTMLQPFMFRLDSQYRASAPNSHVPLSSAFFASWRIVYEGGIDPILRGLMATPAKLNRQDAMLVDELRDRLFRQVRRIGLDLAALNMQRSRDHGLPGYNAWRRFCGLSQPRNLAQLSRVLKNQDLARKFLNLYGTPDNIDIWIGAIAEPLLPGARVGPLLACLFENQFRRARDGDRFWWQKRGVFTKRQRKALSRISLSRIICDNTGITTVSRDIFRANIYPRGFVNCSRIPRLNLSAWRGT
# Protocol: [formula] where A=minimal Y value (activity level of inhibited sample), B=maximal Y value (activity level of uninhibited sample), C=Log IC50, D=Hill Slope, x=concentration of inhibitor. EPX Bromination Assay
# EPX bromination activity was measured in 100 mM KPi (pH 7.4) by monitoring the H2O2 catalyzed formation of 3-bromo tyrosine from tyrosine and potassium bromide. A 50 μl mixture of 0.6 μM EPX (Lee Biosolutions Cat#342-60) was added to 100 nL inhibitor in 100% DMSO in a 384 well REMP plate. Enzyme and compound were preincubated for ten minutes at room temperature.
# After the ten minute preincubation of enzyme and inhibitor, 25 μL of a mixture containing 400 μM tyrosine and 1200 μM potassium bromide was added to the plate containing enzyme and inhibitor, followed by the addition of 25 μl of 20 μM H2O2. The reaction was allowed to proceed for 15 minutes, at which time it was quenched with 10 μL of 20% TCA. The final concentrations of all components were 0.3 μM EPX, 100 μM tyrosine, […], 5 μM H2O2, 0.1% DMSO, 2.0% TCA.
# IC50 values were determined by determining the peak areas of 3-bromo-tyrosine present at the end of the 15 minute reaction and fitting the data to:
# [formula] where A=minimal Y value (activity level of inhibited sample), B=maximal Y value (activity level of uninhibited sample), C=Log IC50, D=Hill Slope, x=concentration of inhibitor.
# Reversed-phase analysis was performed on a Waters Acquity Ultra Performance LC system using an Acquity UPLC BEH C18 […], 2.1×50 mm analytical column. The column was maintained at 60° C. Samples were eluted using a gradient of 0%-100% B over 2.5 minutes, followed by equilibration with 100% A for 1 minute where A consisted of 0.1% TFA and B consisted of 90% MeOH/0.1% TFA at a flow rate of 0.6 ml/min. The retention time of 3-bromo tyrosine was 1.22 min.
# T1 sequence (P05164 49-745): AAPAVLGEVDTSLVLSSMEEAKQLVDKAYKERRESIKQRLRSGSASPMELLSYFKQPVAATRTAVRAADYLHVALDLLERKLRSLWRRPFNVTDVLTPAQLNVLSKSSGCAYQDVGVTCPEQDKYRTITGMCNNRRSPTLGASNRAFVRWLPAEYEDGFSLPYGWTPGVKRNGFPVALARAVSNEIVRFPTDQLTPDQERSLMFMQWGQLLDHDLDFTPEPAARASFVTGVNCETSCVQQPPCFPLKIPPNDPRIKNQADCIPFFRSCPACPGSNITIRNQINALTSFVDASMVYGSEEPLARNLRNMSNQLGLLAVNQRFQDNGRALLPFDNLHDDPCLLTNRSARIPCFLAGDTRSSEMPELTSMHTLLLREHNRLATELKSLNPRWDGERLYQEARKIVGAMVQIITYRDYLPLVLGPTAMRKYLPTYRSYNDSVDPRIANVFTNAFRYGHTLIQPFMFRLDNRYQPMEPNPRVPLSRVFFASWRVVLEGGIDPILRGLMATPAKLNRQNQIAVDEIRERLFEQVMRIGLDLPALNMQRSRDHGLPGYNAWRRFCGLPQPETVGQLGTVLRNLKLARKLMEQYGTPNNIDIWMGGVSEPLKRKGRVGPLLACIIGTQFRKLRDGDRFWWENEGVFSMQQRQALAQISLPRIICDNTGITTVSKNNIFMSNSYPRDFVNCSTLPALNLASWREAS
IC50 (myeloperoxidase (MPO) [1]) [nM],IC50 (myeloperoxidase (MPO) [2]) [nM],IC50 [3] [nM],Structure (SMILES)
101 to 999,1 to 100,34,"Cc1cc(C)cc(Cc2cc(N)nc3[nH]nnc23)c1 [Example 31, 7-(3,5-dimethylbenzyl)-3H-[1,2,3] triazolo[4,5-b]pyridin-5-amine]"
101 to 999,1 to 100,–,"Nc1cc(Cc2cccc(-c3ccn(Cc4ccccc4)n3)c2)c2nn[nH]c2n1 [Example 48, 7-(3-(1-Benzyl-1H-pyrazol-3-yl)benzyl)-3H-[1,2,3]triazolo[4,5-b]pyridin-5-amine]"
101 to 999,101 to 999,–,"COC(=O)c1cc(Cc2cc(N)nc3[nH]nnc23)ccc1F [Example 50, methyl 5-((5-amino-3H-[1,2,3]triazolo [4,5-b]pyridin-7-yl)methyl)-2-fluorobenzoate]"
1000 to 10000,101 to 999,–,"COc1cccc(Cc2cc(N)nc3[nH]nnc23)n1 [Example 51, 7-((6-Methoxypyridin-2-yl)methyl)-3H-[1,2,3]triazolo[4,5-b]pyridin-5-amine]"
101 to 999,101 to 999,–,"Nc1cc(Cc2cccnc2)c2nn[nH]c2n1 [Example 56, 7-(pyridin-3-ylmethyl)-3H-[1,2,3] triazolo[4,5-b]pyridin-5-amine]"
–,1 to 100,52,"Nc1cc(Cc2cncc(Cl)c2)c2nn[nH]c2n1 [Example 57, 7-((5-chloropyridin-3-yl)methyl)-3H-[1,2,3]triazolo [4,5-b]pyridin-5-amine]"
101 to 999,1000 to 10000,–,"Nc1cc(Cc2ccc(Oc3ccccc3)nc2)c2nn[nH]c2n1 [Example 58, 7-((6-phenoxypyridin-3-yl)methyl)-3H-[1,2,3]triazolo [4,5-b]pyridin-5-amine]"
1 to 100,1 to 100,–,"Nc1cc(Cc2cccc3c2ccn3Cc2cccc(Cc3ccccc3)c2)c2nn[nH]c2n1 [Example 62, 7-((1-(3-Benzylbenzyl)-1H-indol-4-yl)methyl)-3H-[1,2,3]triazolo[4,5-b]pyridin-5-amine]"
1 to 100,1 to 100,–,"Nc1cc(Cc2cccc3c2ccn3Cc2cccc(OCc3ccccc3)c2)c2nn[nH]c2n1 [Example 63, 7-((1-(3-(Benzyloxy)benzyl)-1H-indol-4-yl)methyl)-3H-[1,2,3]triazolo[4,5-b]pyridin-5-amine]"
101 to 999,1 to 100,19,"Nc1cc(Cc2cccc3c2ccn3Cc2cccc(F)c2)c2nn[nH]c2n1 [Example 64, 7-((1-(3-Fluorobenzyl)-1H-indol-4-yl)methyl)-3H-[1,2,3]triazolo[4,5-b]pyridin-5-amine]"
1 to 100,1 to 100,–,"Nc1cc(Cc2cccc3c2cnn3Cc2ccccc2)c2nn[nH]c2n1 [Example 65, 7-((1-Benzyl-1H-indazol-4-yl)methyl)-3H-[1,2,3]triazolo[4,5-b]pyridin-5-amine]"
101 to 999,101 to 999,–,"Nc1cc(Cc2cccc3nn(Cc4ccccc4)cc23)c2nn[nH]c2n1 [Example 66, 7-((2-Benzyl-2H-indazol-4-yl)methyl)-3H-[1,2,3]triazolo[4,5-b]pyridin-5-amine]"
